From ChEMBL document CHEMBL1148257, “The significant effect of the carbohydrate structures on the DNA photocleavage of the quinoxaline-carbohydrate hybrids” (Bioorg Med Chem Lett, 2004) come the findings set out here.

Assay [1] has as its system Nucleic Acid. Put plainly: Concentrations of compound at which 50% Form I DNA was converted into Form II DNA of Phi X 174. In kind it is functional.
Assay [2] has as its system HeLa. Kind of assay: Cytotoxicity of compound against HeLa S3 cells without photoirradiation. In kind it is functional, cell-based. The conditions noted are these: Homo sapiens, light or radiation study.
For assay [3], the system named is HeLa. Put plainly: Cytotoxicity of compound against HeLa S3 cells exposed to compound for 72 hr with 1 hr photoirradiation. The conditions noted are these: Homo sapiens, light or radiation study.

As for `CC1O[C@H](OC2C(O)C[C@H](OCCOC(=O)c3cnc4ccccc4n3)OC2C)CC(N)C1O` (some centres undefined), the CC50 in assay [1] turned out to be 43 µM. Besides, the IC50 was > 100 µM in assay [2] and 6 µM in assay [3].
`CC1O[C@H](OC2C(O)C[C@@H](OCCOC(=O)c3cnc4ccccc4n3)OC2C)CC(N)C1O` (some centres undefined) registered a CC50 in assay [1] of 160 µM.
